# Like-named read-outs stand apart in the source and are kept apart here.
# How the values were obtained:
# DYRK1A [1] = molecular target: T1, DYRK1A (Rattus norvegicus, UniProt Q63470); assay: DYRK1A ELISA kinase assay; type: biochemical; conditions: for times less potent against DYRK1A compared to the di-hydroxy derivatives: A-ring hydroxyl removal, vs GCG
# [2] = Stability in biological media; type: in vitro ADME; conditions: biological media (plasma and hepatocytes media)
# DYRK1A [3] = molecular target: T1, DYRK1A; assay: DYRK1A ELISA assay with varying concentrations of ATP; type: biochemical; conditions: [ATP] up to 0.8 mM
# [4] = tested on: spinal cord inflammation, demyelination, and axonal neurodegeneration; assay: Histopathological analysis of spinal cord sections of EAE mice; type: in vivo; conditions: intranasal vs oral, 15 mg/kg BID
# [5] = tested on: MOG35–55-induced murine model of chronic progressive Experimental Autoimmune Encephalomyelitis (EAE); assay: EAE therapeutic model, disease scores; type: in vivo
# [6] = Exposure after intranasal compared to oral route; type: in vivo; conditions: brain and peripheral blood; data not shown
# [7] = mice; cited from earlier work
# [8] = cited from earlier work
compound,measurement,setting,value
O=C(O[C@H]1Cc2ccccc2O[C@@H]1c1cc(O)c(O)c(O)c1)c1cc(O)c(O)c(O)c1 (racemic) [1a],times less potent against DYRK1A compared to the di-hydroxy derivatives,DYRK1A [1],about 4 times
same,IC50,"DYRK1A [1]; read-out: DYRK1A IC50, ELISA assay",422 nM
O=C(O[C@@H]1Cc2c(O)cc(O)cc2O[C@H]1c1ccc(O)c(O)c1)c1cc(O)c(O)c(O)c1F (racemic) [1r],stability in biological media,[2],improved stability in biological media
same,fold more potent than catechin gallate (CG),DYRK1A [1],about 3 fold
O=C(OC1Cc2c(O)cccc2OC1c1cc(O)c(O)c(O)c1)c1cc(O)c(O)c(O)c1 (centres unmarked) [1b],times less potent against DYRK1A compared to the di-hydroxy derivatives,DYRK1A [1],~2 times
O=C(OC1Cc2ccccc2CC1c1cc(O)c(O)c(O)c1)c1cc(O)c(O)c(O)c1 (centres unmarked) [1c],stability in biological media,[2],does not improve stability in biological media
O=C(O[C@@H]1Cc2c(O)cc(O)cc2O[C@H]1c1cc(O)c(O)c(O)c1)c1cc(O)c(O)c(O)c1F [1f],effect of [ATP] on inhibitory potency,DYRK1A [3],only marginally affected
same,"spinal cord lesion severity, intranasal versus oral administration",[4],more effective at reducing lesion severity than oral administration
same,fold improvement in activity against DYRK1A compared to GCG,DYRK1A [1],about 3 fold
same,EAE disease scores,"[5]; intranasal, 15 mg/kg twice daily",reversal of the disease scores similar to that observed with FTY720
same,EAE disease scores,"[5]; oral (PO), 15 mg/kg BID",no significant amelioratory effect until the last two days of the study
O=C(O[C@@H]1Cc2c(O)cc(O)cc2O[C@H]1c1cc(O)c(O)c(O)c1F)c1cc(O)c(O)c(O)c1 [1n],stability in biological media,[2],did not translate into a stability improvement in biological media
"O=C(O[C@@H]1Cc2c(O)cc(O)cc2O[C@H]1c1cc(O)c(O)c(O)c1)c1cc(O)c(O)c(O)c1 [(−)GCG, reference compound]",effect of [ATP] on inhibitory potency,DYRK1A [3],only marginally affected
"O=C(O[C@@H]1Cc2c(O)cc(O)cc2O[C@H]1c1ccc(O)c(O)c1)c1cc(O)c(O)c(O)c1 [CG, catechin gallate]",exposure increase with intranasal compared to the oral route,[6],50 fold
"Oc1cc(O)c2c(c1)O[C@H](c1cc(O)c(O)c(O)c1)[C@H](O)C2 [EGC, EpiGalloCatechin, reference compound]",IC50,DYRK1A [1],> 100000 nM
"O=C(O[C@@H]1Cc2c(O)cc(O)cc2O[C@@H]1c1cc(O)c(O)c(O)c1)c1cc(O)c(O)c(O)c1 [EGCG, Epigallocatechin gallate]",oral bioavailability (F),[7],up to 12%
same,oral bioavailability (F),[8]; rats,up to 5%
same,EAE disease scores,"[5]; oral (PO), 15 mg/kg BID",did not see any significant activity
COc1cc(C(=O)O[C@@H]2Cc3c(O)cc(O)cc3O[C@@H]2c2cc(O)c(O)c(O)c2)cc(O)c1O [EGCG-3”OMe],fold improved oral bioavailability than EGCG,[8],about 6 fold
"CCCCCCCCc1ccc(CCC(N)(CO)CO)cc1 [FTY720, Fingolimod, reference compound]",EAE disease scores,[5]; 1 mg/kg QD,reversal of the disease scores

# Source: publication PMC9067539 (Bioorganic & medicinal chemistry letters, 2022)
